The values below come from PMC4678601 (Chemical science (Royal Society of Chemistry : 2010), 2014).

A value given as a limit tells only on which side of the number the result lay.

For data set [1], the system named is BBOX. Particulars: read-out: KM of BBOX for 2OG; cited from earlier work.
The test system of data set [2] is carnitine biosynthesis in HEK 293T cells. Briefly: LC-MS detection of carnitine levels in HEK 293T cells. The data set is classed as cell-based, human. Particulars: for Carnitine levels: control 100% (SEM ± 13%).
For data set [3], the system named is histone demethylases (KDMs). Briefly: Selectivity panel of human 2OG oxygenases: histone demethylases. The format is biochemical. Particulars: at 100 μM.
The test system of a further data set is HEK 293T cells. Put plainly: Cytotoxicity in HEK 293T cells. The settings on record: up to concentrations of 0.5 mM. The data set is classed as cell-based, human.
In data set [4] the test system is BBOX. The settings on record: read-out: IC50 BBOX in vitro; cited from earlier work.
Data set [5] deals with T1, BBOX (Homo sapiens, UniProt O75936).
T1 sequence (O75936 1-387): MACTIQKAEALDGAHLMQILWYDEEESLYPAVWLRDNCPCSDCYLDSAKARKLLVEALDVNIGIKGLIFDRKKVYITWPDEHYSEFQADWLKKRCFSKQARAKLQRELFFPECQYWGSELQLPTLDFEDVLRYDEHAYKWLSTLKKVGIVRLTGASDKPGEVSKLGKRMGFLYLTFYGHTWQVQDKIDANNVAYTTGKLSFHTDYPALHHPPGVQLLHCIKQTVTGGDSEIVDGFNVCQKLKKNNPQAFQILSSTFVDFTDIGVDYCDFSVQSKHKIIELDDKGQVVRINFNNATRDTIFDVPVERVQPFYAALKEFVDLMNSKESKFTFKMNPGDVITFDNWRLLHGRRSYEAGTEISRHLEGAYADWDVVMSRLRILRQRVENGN
Briefly: Binding assay by quenching of the intrinsic fluorescence of BBOX.

In the case of `O=C(O)CCC(=O)C(=O)O` [2OG, 2-oxoglutarate], the Michaelis constant (Km) in the data set on BBOX [1] is 160 µM.

On to `O=C(N[C@@H](CSCc1ccccn1)C(=O)O)c1ncccc1O` [AR692B], for which the “Reduction in carnitine levels” value in data set [2] (HEK 293T cells, 100 μM) is given as greater than 40%. In addition, in data set [2] (HEK 293T cells, 100 μM compound), the Carnitine levels is 57 ± 9 percentage of free carnitine l. The “Activity against the tested KDMs” value in data set [3] was “inactive”. In addition, in the data set with HEK 293T cells, the Cytotoxicity entry is on record as “not cytotoxic”.

With `C[N+](C)(C)CCCC(=O)[O-]` [GBB, γ-butyrobetaine], the “Reduction of carnitine levels” value in data set [2] (cells, 20 μM) was ~ 50%.

Turning to `C[N+](C)(C)NCCC(=O)[O-]` [Mildronate], the Carnitine levels is given as 70 ± 6 percentage of free carnitine l in data set [2] (HEK 293T cells, 20 μM compound) and 37 ±10 percentage of free carnitine l in data set [2] (HEK 293T cells, 50 μM compound). Moreover, the “Reduction of carnitine levels” value is given as 63% in data set [2] (HEK 293T cells, 50 μM) and 30% in data set [2] (cells, 20 μM). The “Activity on carnitine levels” value in data set [2] (HEK 293T cells, below 5 μM) is reported as “not active”. Also, the IC50 in the data set with BBOX [4] was 60 µM.

Molecule `O=C(O)CNC(=O)c1ncccc1O` [compound 1, (3-hydroxypicolinoyl)glycine] showed a Kd on BBOX [5] of 10.8 µM.

One may read the Km as the substrate concentration at which the rate is half of its maximum. Broadly, the IC50 is the point on the concentration scale where inhibition reaches its midpoint. As usually defined, the Kd is a measure of binding affinity in units of concentration. A higher Kd goes with lower affinity.
